The test system of assay [1] is C3H/HeN mice. Description: Phase shift of circadian running wheel activity onset in constant dark. Particulars: for advance of the onset of activity: 0.9 μg/mouse (~30 μg/Kg) s.c., CT10 (dusk), 3 days; for advance of the onset of running wheel activity: 30 μg/mouse (1 mg/Kg) s.c., CT10, WT; for EC50 of in vivo activity (circadian phase shift): mouse. It counts as in vivo, mouse. An excerpt:
(§1) Male and female C3H/HeN (C3H) wild-type (WT), MT1 knockout (MT1KO), and MT2 knockout (MT2KO) mice (average 6.28 months) used in this study were raised in our breeding colony at University at Buffalo. […] Genotype was confirmed using tail samples at the end of each experiment and was verified periodically during the tenure of the colony. The strains of mice in our breeding colony were re-derived periodically by backcrossing with WT mice to reduce genetic drift.
(§2) Mice were group housed (3-5 per cage) with corncob bedding in polycarbonate translucent cages (30×19 cm) and maintained in a 14/10 light-dark (LD) cycle (Zeitgeber time 0 or ZT0 corresponds to Lights ON and ZT 14 to Lights OFF) in temperature and humidity controlled rooms with ad libitum access to food and water in the Laboratory Animal Facility at the University at Buffalo. Light levels were 200-300 lux at the level of the cage. Treatments and animal care performed in the dark were under a dim red safelight (15 watts, Kodak 1A filter) with illuminance of less than 3-5 lux (Benloucif, S. & Dubocovich, M. L. J Biol Rhythms 11, 113-125, (1996). All experimental procedures using mice were conducted in accordance with guidelines set forth by the National Institutes of Health and approved by the University at Buffalo Institutional Animal Care and Use Committee.
(§3) Circadian rhythm phase was determined for each mouse using the onset of running wheel activity defined as CT12 (Circadian Time 12). Running wheel activity was measured continuously via magnetic microswitches detecting wheel revolutions with a computer equipped with Clocklab data collection Software™ (Actimetrics: Wilmette, Ill.). All actigraphy data was visualized and analyzed using ClockLab™ and MATLAB™ software. All mice were individually housed in cages (33×15 cm) equipped with running wheels in light-tight ventilated cabinets with controlled temperature and LD cycles (Phenome Technologies: Skokie, Ill.). Male and female mice were housed in separate cabinets for all experiments.
Following a period of 14 days in a LD cycle mice were placed in constant dark (DD) beginning at ZT12 (dark onset). Mice were keptin DD (2-3 weeks) untilastable free-running phase of running wheel activity rhythm onset was established. Circadian times of treatment were predicated from best fit lines of running wheel activity onsets for of running either pre (7-14 days) and post (7-14 days) treatment. Treatment times were at CT10 (CT9-11) and CT2 (CT1-3) within a 3 hour window. […] Vehicle or drug treatments were repeated for 3 consecutive days at the selected circadian time following the three-pulse treatment protocol described (Benloucif, supra). Phase shifts were quantified using the best-fit lines for onsets of activity during pre and post treatment periods. Differences are characterized as phase delays (pre-treatment ahead of post treatment best fit line onset) or phase advances (post treatment ahead of pre treatment best fit line onset) of running wheel activity onset rhythms.
All statistical analyses as described in further detail for each experiment were conducted using GraphPad Prism 8™ (La Jolla, Calif.). All data sets were visualized for normality using QQ plots of predicted vs. actual residuals. Actigraphy data was generated for visualization blind to treatment prior to the quantification and statistical analysis stages. […] Data in FIGS. 4F & 4G were compared via a two-way ANOVA (3×2: genotype x treatment) with Tukey's post hoc analyses (P<0.05). Comparisons for FIG. 4L, FIGS. 11H-11J were made by mixed effect two-way repeated measures ANOVA (treatment×time) with Sidak's post hoc test (P<0.05). Number of days to re-entrainment was compared via one-way ANOVA or two-way ANOVA for FIG. 4M & FIG. 4N with a Dunnet's & Tukey's post hoc test (P<0.05) respectively. P values and values for statistical analyses are included in figure legends. […]

The target in another assay is T1, 5HT2c (Homo sapiens, UniProt P28335).
T1 construct: Tango fusion elements (printed only as 'PRESTO-Tango receptor DNAs'); expressed in transfected cells; host or cells: HTLA cells
T1 sequence (P28335 33-458): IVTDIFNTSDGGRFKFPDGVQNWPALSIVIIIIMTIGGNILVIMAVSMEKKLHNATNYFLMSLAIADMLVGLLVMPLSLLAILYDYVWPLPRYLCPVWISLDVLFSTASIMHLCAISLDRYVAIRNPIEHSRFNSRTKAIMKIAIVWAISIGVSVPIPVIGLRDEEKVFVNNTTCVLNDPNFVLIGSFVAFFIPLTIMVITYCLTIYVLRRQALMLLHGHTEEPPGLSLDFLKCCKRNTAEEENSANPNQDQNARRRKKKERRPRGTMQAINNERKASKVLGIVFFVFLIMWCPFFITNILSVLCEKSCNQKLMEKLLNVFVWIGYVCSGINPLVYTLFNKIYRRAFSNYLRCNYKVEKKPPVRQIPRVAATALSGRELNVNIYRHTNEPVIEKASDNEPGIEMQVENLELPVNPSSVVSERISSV
Description: PRESTO-Tango GPCR-ome counter-screen, agonist mode. Particulars: arrestin recruitment Tango, in words. It counts as cell-based. On the procedure:
(§4) Screening of compounds in the PRESTO-Tango GPCR-ome was accomplished as previously described (Kroeze, supra). with several modifications. First, HTLA cells were plated in DMEM with 10% FBS and 10 U/mL penicillin-streptomycin. Next, the cells were transfected using an in-plate PEI method (Longo, P. A. et al., Methods Enzymol 529, 227-240, 2013). PRESTO-Tango receptor DNAs were resuspended in OptiMEM and hybridized with PEI prior to dilution and distribution to 384-well plates and subsequent addition to cells. After overnight incubation, drugs were added to cells without replacement of the medium. The remaining steps of the PRESTO-Tango protocol were followed as previously described.
In general terms: The purpose of a counterscreen is to sort out artefacts and off-target activity.

In a further assay the test system is 318 other GPCRs. As to the kind of experiment: PRESTO-Tango GPCR-ome counter-screen, agonist mode. It counts as cell-based. The settings on record: arrestin recruitment Tango, in words. On the procedure: as §4
In the next assay the target is hMT1 (Homo sapiens, UniProt P48039). As to the kind of experiment: 2-[125I]-iodomelatonin competition binding, CHO cell membranes. The settings on record: read-out: Ki at MT1.
Sequence of hMT1 (P48039 whole entry): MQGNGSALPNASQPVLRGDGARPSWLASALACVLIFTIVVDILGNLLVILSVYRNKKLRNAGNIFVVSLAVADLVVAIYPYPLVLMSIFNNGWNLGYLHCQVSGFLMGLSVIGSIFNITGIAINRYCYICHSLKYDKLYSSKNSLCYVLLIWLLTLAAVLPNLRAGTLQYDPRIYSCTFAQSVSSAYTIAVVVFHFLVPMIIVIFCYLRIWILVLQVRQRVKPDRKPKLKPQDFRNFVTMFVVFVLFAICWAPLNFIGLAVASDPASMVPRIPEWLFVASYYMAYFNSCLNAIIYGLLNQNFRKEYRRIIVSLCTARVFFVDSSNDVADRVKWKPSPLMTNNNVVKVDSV
Assay [2] deals with C3H/HeN mice. As to the kind of experiment: Re-entrainment of running wheel activity after 6 h advance of dark onset (jet-lag model). The format is in vivo. The settings on record: 30 μg/mouse s.c., in words; for rate of re-entrainment to the new light-dark cycle: 3 days, WT.
From the text: as §1, §2, §3
Male and female C3H WT, MT1KO, and MT2KO mice (3 to 6 months) were maintained under a 12:12 LD cycle for at least 2 weeks prior experimental manipulations to allow stable entrainment to dark onset before advance of the LD cycle. Actigraphy data was recorded as described above and all experiment protocols performed as described (Dubocovich, M. L. et al., J Pineal Res 39, 113-120, 2005). On the first day of treatment, the dark onset was advanced 6 h. […] Post treatment, mice were given 14-20 days to re-entrain running wheel activity onsets to the new dark onset. Using exported running wheel activity onsets from actograms, onset hours advanced each day were determined by subtracting this value each day from the average onset of running wheel activity for 3 days prior to treatment for each mouse. Further, using the data from this calculation combined with visualization of actograms, the number of days to reach stable re-entrainment was determined for each mouse.
All statistical analyses as described in further detail for each experiment were conducted using GraphPad Prism 8™ (La Jolla, Calif.). All data sets were visualized for normality using QQ plots of predicted vs. actual residuals. Actigraphy data was generated for visualization blind to treatment prior to the quantification and statistical analysis stages. […] Data in FIGS. 4F & 4G were compared via a two-way ANOVA (3×2: genotype x treatment) with Tukey's post hoc analyses (P<0.05). […]

Where two headings read alike, the source gives them in different places.

These results are taken from patent US20230052740A1, “MODULATORS OF CIRCADIAN RHYTHMS AND USES THEREOF” (The Regents of the University of California, priority 2019, published 2023).

Description for hMT1: For receptor binding studies, '7447 was dissolved in 50% DMSO/50% ethanol for 13 mM stock solution, diluted 1/10 in 100% ethanol then 1/10 again in 50% ethanol/50% Tris-HCl buffer. Both '3384 and '4226 were dissolved in 100% ethanol for 13 mM stock solutions and then diluted 1/10 in 50% ethanol/50% Tris-HCl buffer. Further dilutions were done in Tris-HCl buffer.
Assays were incubated for 1 hour at 25° C. Bound radioligand was separated from freeby rapidvacuum filtration using glass microfiber filters (Whatman, Krackeler Scientific, Inc., Albany N.Y., USA) saturated in 0.5% polyethylenimine solution.
Affinity shifts or lack thereof with G protein inactivation indicate apparent efficacy (Lefkowitz, R. J. et al., J Biol Chem 251, 4686-4692, 1976) as ligands are classified as agonists (ΔpKi% MLT>20%), antagonists (ΔpKi% MLT<20%, >−20%), or inverse agonists (ΔpKi% MLT<−20%) accordingly.

In the case of `COc1ccc(Br)c(CNc2cccnc2)c1` [ZINC128734226], the “effect on circadian phase” value with C3H/HeN mice [1] (0.9 or 30 μg/Kg doses, CT10, in words) is on record as “did not significantly affect circadian phase”. Moreover, at 5HT2c, the “off-target agonist activity on 5HT2c” value is “did have some activity on 5HT2c”.

For `CC(C)c1ccc(CNc2cccc(-c3ncn[nH]3)c2)cc1` [ZINC157673384], the “advance of the onset of activity” value in the assay on C3H/HeN mice [1] (WT) is “approximately 1 hour”. Moreover, the “advance of the onset of running wheel activity” value in the assay on C3H/HeN mice [1] (in words) is given as “advanced the onset of running wheel activity with an amplitude equivalent to, or even larger than that of melatonin”. In addition, the “EC50 of in vivo activity (circadian phase shift)” value in the assay on C3H/HeN mice [1] was determined as 30 µg/kg. Besides, the off-target agonist activity entry with 318 other GPCRs is recorded as “Neither of the two inverse agonists had significant activity against any of the 318 receptors”. Moreover, the Ki – broadly, the equilibrium dissociation constant of an inhibitor or competing ligand from its target – at hMT1 (in the absence of GTP) was 938 nM; at hMT1 (with GTP (100 μM)), 63 nM. Further, in the assay with C3H/HeN mice [2], the “rate of re-entrainment to the new light-dark cycle” value is “decelerated re-entrainment”.

Turning to `Clc1ccc(CNc2cccc(-c3nnc[nH]3)c2)c(Br)c1` [ZINC555417447], the “advance of the onset of activity” value in the assay on C3H/HeN mice [1] (WT) is on record as “approximately 1 hour”. Further, the “advance of the onset of running wheel activity” value with C3H/HeN mice [1] (in words) is on record as “advanced the onset of running wheel activity with an amplitude equivalent to, or even larger than that of melatonin”. The “phase shift of RW activity onset at CT2” value with C3H/HeN mice [1] (30 μg/mouse s.c., CT2 (dawn), WT, MT1KO, MT2KO, in words) is “did not phase shift RW activity onset”. Also, the “phase advance activity in MT1KO mice” value with C3H/HeN mice [1] (30 μg/mouse s.c., CT10, MT1KO, in words) was “ablation of the activity”. The “phase advance activity in MT2KO mice” value in the assay with C3H/HeN mice [1] (30 μg/mouse s.c., CT10, MT2KO, in words) is “maintenance of its activity”. Also, the “EC50 of in vivo activity (circadian phase shift)” value in the assay on C3H/HeN mice [1] stood at 30 µg/kg. The off-target agonist activity result with 318 other GPCRs is “Neither of the two inverse agonists had significant activity against any of the 318 receptors”. Besides, the Ki at hMT1 (in the absence of GTP) is 304 nM; on hMT1 (with GTP (100 μM)), 7.5 nM. Moreover, in the assay on C3H/HeN mice [2], the “rate of re-entrainment to the new light-dark cycle” value is reported as “decelerated re-entrainment”. Besides, the “effect on re-entrainment in MT1KO mouse” value in the assay with C3H/HeN mice [2] (MT1KO) is on record as “eliminated”. Further, the “effect on re-entrainment in MT2KO mice” value in the assay with C3H/HeN mice [2] (MT2KO) was “greater deceleration”.
